Assay results from patent publication US6737383B1, “Herbicidal oxadiazolidines” (priority 1999, dated 2004).

Key:
Alexandergrass = assay: Test D Alexandergrass; type: in vivo, Brachiaria plantaginea; details: Preemergence, 0 to 100 scale
Method in brief: (§1)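 Each weed species is planted in its own pot or compartment; preemergence doses go on the sandy loam surface within a day. The formulation is a surfactant-containing, non-phytotoxic solvent blend. Ratings come from visual comparison with untreated controls 14 to 21 days later, where 100 means complete control.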

common pursiane = assay: Test D common purslane; type: in vivo, Portulaca oleracea
Method in brief: as §1

common ragweed = assay: Test D common ragweed; type: in vivo, Ambrosia elatior; details: Preemergence, 0 to 100 scale
Method in brief: as §1

common groundsel = assay: Test D common groundsel; type: in vivo, Senecio vulgaris; details: Preemergence, 0 to 100 scale
Method in brief: as §1

dallisgrass = assay: Test D dallisgrass; type: in vivo, Paspalum dilatatum; details: Preemergence, 0 to 100 scale
Method in brief: as §1

goosegrass = assay: Test D goosegrass; type: in vivo, Eleusine indica; details: Preemergence, 0 to 100 scale
Method in brief: as §1

guineagrass = assay: Test D guineagrass; type: in vivo, Panicum maximum; details: Preemergence, 0 to 100 scale
Method in brief: as §1

Johnson grass = assay: Test D Johnson grass; type: in vivo, Sorghum halepense; details: Preemergence, 0 to 100 scale
Method in brief: as §1

large crabgrass = assay: Test D large crabgrass; type: in vivo, Digitaria sanguinalis; details: Preemergence, 0 to 100 scale
Method in brief: as §1

purple nutsedge = assay: Test D purple nutsedge; type: in vivo, Cyperus rotundus; details: Preemergence, 0 to 100 scale
Method in brief: as §1

sandbur = assay: Test D sandbur; type: in vivo, Cenchrus echinatus; details: Preemergence, 0 to 100 scale
Method in brief: as §1

surinam grass = assay: Test D surinam grass; type: in vivo, Brachiaria decumbens; details: Preemergence, 0 to 100 scale
Method in brief: as §1

tall mallow = assay: Test D tall mallow; type: in vivo, Malva sylvestris; details: Preemergence, 0 to 100 scale
Method in brief: as §1

Green foxtail = assay: Test D green foxtail; type: in vivo; details: Preemergence, 0 to 100 scale
Method in brief: as §1

[1] = Rate 16 g/ha, 0 no injury, 100 complete control
[2] = Rate 32 g/ha, 0 no injury, 100 complete control
[3] = Rate 64 g/ha, 0 no injury, 100 complete control
[4] = Rate 125 g/ha, 0 no injury, 100 complete control
[5] = Rate 250 g/ha; Preemergence; 0 to 100 scale
[6] = Rate 500 g/ha; Preemergence; 0 to 100 scale

CCn1c(=O)on(C(=O)N(c2ccc(Cl)cc2)C(C)C)c1=O [Compound 108]
50: Plant response rating, Dallisgrass (dallisgrass; [2])
85: Plant response rating, Alexandergrass (Alexandergrass; [3]) | Plant response rating, Com. groundsel (common groundsel; [3]) | Plant response rating, Goosegrass (goosegrass; [2]) | Plant response rating, Guineagrass (guineagrass; [2]) | Plant response rating, Johnsongrass (Johnson grass; Rate 250 g/ha) | Plant response rating, Johnsongrass (Johnson grass; Rate 500 g/ha) | Plant response rating, Large crabgrass (large crabgrass; [1])
20: Plant response rating, Alexandergrass (Alexandergrass; [1]) | Plant response rating, Alexandergrass (Alexandergrass; [2]) | Plant response rating, Johnsongrass (Johnson grass; [2]) | Plant response rating, Johnsongrass (Johnson grass; [3])
75: Plant response rating, Com. groundsel (common groundsel; [2])
100: Plant response rating, Alexandergrass (Alexandergrass; Rate 250 g/ha) | Plant response rating, Alexandergrass (Alexandergrass; Rate 500 g/ha) | Plant response rating, Com. groundsel (common groundsel; [4]) | Plant response rating, Com. groundsel (common groundsel; Rate 250 g/ha) | Plant response rating, Com. groundsel (common groundsel; Rate 500 g/ha) | Plant response rating, Dallisgrass (dallisgrass; [3]) | Plant response rating, Dallisgrass (dallisgrass; [4]) | Plant response rating, Dallisgrass (dallisgrass; Rate 250 g/ha) | Plant response rating, Dallisgrass (dallisgrass; Rate 500 g/ha) | Plant response rating, Goosegrass (goosegrass; [4]) | Plant response rating, Goosegrass (goosegrass; Rate 250 g/ha) | Plant response rating, Goosegrass (goosegrass; Rate 500 g/ha) | Plant response rating, Guineagrass (guineagrass; Rate 250 g/ha) | Plant response rating, Guineagrass (guineagrass; Rate 500 g/ha) | Plant response rating, Large crabgrass (large crabgrass; [2]) | Plant response rating, Large crabgrass (large crabgrass; [3]) | Plant response rating, Large crabgrass (large crabgrass; [4]) | Plant response rating, Large crabgrass (large crabgrass; Rate 250 g/ha) | Plant response rating, Large crabgrass (large crabgrass; Rate 500 g/ha) | Plant response rating, Sandbur (sandbur; Rate 500 g/ha) | Plant response rating, Surinam grass (surinam grass; Rate 500 g/ha) | Plant response rating, Green foxtail (Green foxtail; Rate 250 g/ha) | Plant response rating, Green foxtail (Green foxtail; Rate 500 g/ha)
10: Purple nutsedge plant response rating (purple nutsedge; [4]) | Plant response rating, Purple nutsedge (purple nutsedge; Rate 250 g/ha) | Tall Mallow plant response rating (tall mallow; [4])
60: Plant response rating, Goosegrass (goosegrass; [1])
45: Plant response rating, Tall Mallow (tall mallow; Rate 250 g/ha)
80: Plant response rating, C. purslane (common pursiane; Rate 500 g/ha, Preemergence; 0 to 100 scale) | Plant response rating, C. ragweed (common ragweed; Rate 500 g/ha)
98: Plant response rating, Alexandergrass (Alexandergrass; [4]) | Plant response rating, Goosegrass (goosegrass; [3]) | Plant response rating, Guineagrass (guineagrass; [3]) | Plant response rating, Guineagrass (guineagrass; [4]) | Sandbur plant response rating (sandbur; [4]) | Plant response rating, Sandbur (sandbur; Rate 250 g/ha) | Surinam grass plant response rating (surinam grass; [4]) | Plant response rating, Surinam grass (surinam grass; Rate 250 g/ha) | Plant response rating, Tall Mallow (tall mallow; Rate 500 g/ha)
65: Plant response rating, Com. groundsel (common groundsel; [1]) | Plant response rating, Surinam grass (surinam grass; [2]) | Surinam grass plant response rating (surinam grass; [3])
0: Plant response rating, C. purslane (common pursiane; Rate 16 g/ha; Preemergence; 0 to 100 scale, 0 no injury, 100 complete control) | Plant response rating, C. purslane (common pursiane; Rate 32 g/ha; Preemergence; 0 to 100 scale, 0 no injury, 100 complete control) | Plant response rating, C. purslane (common pursiane; Rate 64 g/ha, Preemergence; 0 to 100 scale, 0 no injury, 100 complete control) | Plant response rating, C. purslane (common pursiane; Rate 125 g/ha, Preemergence; 0 to 100 scale, 0 no injury, 100 complete control) | Plant response rating, C. purslane (common pursiane; [5]) | Plant response rating, C. purslane (common pursiane; [6]) | Plant response rating, C. ragweed (common ragweed; [1]) | Plant response rating, C. ragweed (common ragweed; [2]) | Plant response rating, C. ragweed (common ragweed; [3]) | Plant response rating, C. ragweed (common ragweed; [4]) | Plant response rating, C. ragweed (common ragweed; Rate 250 g/ha) | Plant response rating, Guineagrass (guineagrass; [1]) | Plant response rating, Johnsongrass (Johnson grass; [1]) | Plant response rating, Purple nutsedge (purple nutsedge; [1]) | Plant response rating, Purple nutsedge (purple nutsedge; [2]) | Purple nutsedge plant response rating (purple nutsedge; [3]) | Plant response rating, Sandbur (sandbur; [1]) | Plant response rating, Sandbur (sandbur; [2]) | Plant response rating, Surinam grass (surinam grass; [1]) | Plant response rating, Tall Mallow (tall mallow; [1]) | Plant response rating, Tall Mallow (tall mallow; [2]) | Tall Mallow plant response rating (tall mallow; [3])
30: Plant response rating, Purple nutsedge (purple nutsedge; Rate 500 g/ha) | Sandbur plant response rating (sandbur; [3])
40: Plant response rating, Dallisgrass (dallisgrass; [1]) | Plant response rating, Johnsongrass (Johnson grass; [4])

CC(C)N(C(=O)n1oc(=O)n(C2CCCCC2)c1=O)c1ccc(F)cc1 [Compound 110]
100: Plant response rating, Alexandergrass (Alexandergrass; Rate 250 g/ha) | Plant response rating, Alexandergrass (Alexandergrass; Rate 500 g/ha) | Plant response rating, Dallisgrass (dallisgrass; Rate 250 g/ha) | Plant response rating, Dallisgrass (dallisgrass; Rate 500 g/ha) | Plant response rating, Goosegrass (goosegrass; Rate 250 g/ha) | Plant response rating, Goosegrass (goosegrass; Rate 500 g/ha) | Plant response rating, Guineagrass (guineagrass; Rate 250 g/ha) | Plant response rating, Guineagrass (guineagrass; Rate 500 g/ha) | Plant response rating, Large crabgrass (large crabgrass; Rate 250 g/ha) | Plant response rating, Large crabgrass (large crabgrass; Rate 500 g/ha) | Plant response rating, Green foxtail (Green foxtail; Rate 250 g/ha) | Plant response rating, Green foxtail (Green foxtail; Rate 500 g/ha)
85: Plant response rating, Surinam grass (surinam grass; Rate 500 g/ha)
70: Plant response rating, Surinam grass (surinam grass; Rate 250 g/ha)
45: Plant response rating, Johnsongrass (Johnson grass; Rate 500 g/ha)
0: Plant response rating, C. purslane (common pursiane; [5]) | Plant response rating, C. purslane (common pursiane; [6]) | Plant response rating, C. ragweed (common ragweed; Rate 250 g/ha) | Plant response rating, C. ragweed (common ragweed; Rate 500 g/ha) | Plant response rating, Purple nutsedge (purple nutsedge; Rate 250 g/ha) | Plant response rating, Purple nutsedge (purple nutsedge; Rate 500 g/ha) | Plant response rating, Tall Mallow (tall mallow; Rate 250 g/ha) | Plant response rating, Tall Mallow (tall mallow; Rate 500 g/ha)
98: Plant response rating, Sandbur (sandbur; Rate 250 g/ha) | Plant response rating, Sandbur (sandbur; Rate 500 g/ha)
20: Plant response rating, Com. groundsel (common groundsel; Rate 250 g/ha) | Plant response rating, Com. groundsel (common groundsel; Rate 500 g/ha) | Plant response rating, Johnsongrass (Johnson grass; Rate 250 g/ha)
